Assay results reported in patent US10457710B2, “Antimicrobial peptides, their variants and uses” (priority 2015, dated 2019).
Where a SMILES comes first, the peptide text is derived from it. [ ]: non-standard residue; d: D form.

Experiments:
Type in all cases: cell-based
C. parapsilosis = assay: MIC, clinical yeast strains
Experimental: (§1) Minimum inhibition concetrations (MICs) were determined against Escherichia coli (ATCC 25922), Staphylococcus aureus (ATCC 25923), Klebsiella pneumoniae (ATCC 10031) and Pseudomonas aeruginosa (ATCC 27853). Also clinical strains of E. coli, K. pneumoniae, E. cloacae, P. aeruginosa, Serratia marcescens, Proteus mirabilis, S. pneumoniae, Acinetobacter baumannii, A. johnsonii and S. aureus were used for MICs assays. Additionally, clinical strains of yeast including Candida albicans, C. glabrata, C. parapsilosis and C. quillermondiae were used. The susceptibility of these microorganisms to Chain peptides were determined using micro broth dilution assay. Colonies of the respective microorganism from Muller Hinton (MH) agar plates incubated overnight were suspended in MH broth media and final concentration of microorganism was adjusted to 5.0×10^5 cfu/ml. An aliquot of 10 μl of each Chain peptide, or gentamicin, tetracycline as reference antibiotics were added in differing concentrations along with 90 μl of bacterial suspension to 96 well polypropylene plates and incubated at 37° C. for 20 to 24 hours. Concentrations of Chain peptides and reference antibiotics ranged from 0.125 to 128 μg/ml and the MICs were recorded as the lowest concentration with no visual growth of bacteria. Similarly, antifungal MICs were tested in Potato dextrose broth.
(§2) Clinical strains of yeasts including Candida albicans, C. glabrata, C. parapsilosis and C. quillermondiae were also tested with the 12 Chain peptides. The minimum inhibitory concentration (MICs) varied between these peptides and are presented in Tables 4a, 4b, 4c and 5a, 5b, 5c. Peptides Chain 105, 201 and 308 are broad spectrum antimicrobials with MICs between 0.5-32 μg/ml against all the bacteria and yeasts tested, except Serratia marcescens and Proteus mirabilis, against which the MICs were between 64-128 μg/ml. Peptide Chain 306 has narrow spectrum activity against E. coli at 1 μg/ml and for the rest of the bacterial strains at >32 μg/ml (FIG. 10c).

C. glabrata = assay: MIC, clinical yeast strains
Experimental: as §1, §2

Candida albicans = assay: MIC, clinical yeast strains
Experimental: as §1, §2

C. quillermondiae = assay: MIC, clinical yeast strains; design: Minimum inhibitory concentration: unit: μg/ml; conditions: C. quillermondiae clinical yeast strain 1
Experimental: as §1, §2

[1] = tested on: clinical strains of P. aeruginosa; assay: MIC, microdilution, clinical strains; conditions: 0.02% BSA, 0.2% acetic acid
Experimental: as §1, §2

[2] = tested on: clinical strains of K. pneumoniae; assay: MIC, microdilution, clinical strains; conditions: 0.02% BSA, 0.2% acetic acid
Experimental: as §1, §2

[3] = tested on: clinical strains of Proteus mirabilis; assay: MIC, microdilution, clinical strains; conditions: 0.02% BSA, 0.2% acetic acid
Experimental: as §1, §2

[4] = tested on: clinical strains of E. cloacae; assay: MIC, microdilution, clinical strains; conditions: 0.02% BSA, 0.2% acetic acid
Experimental: as §1, §2

[5] = tested on: clinical strains of E. coli; assay: MIC, microdilution, clinical strains; conditions: microdilution, Muller Hinton broth-cation adjusted, 0.02% BSA, 0.2% acetic acid
Experimental: as §1, §2

[6] = tested on: clinical strains of S. aureus; assay: MIC, microdilution, clinical strains; conditions: 0.02% BSA, 0.2% acetic acid
Experimental: as §1, §2

[7] = tested on: clinical strains of S. pneumoniae; assay: MIC, microdilution, clinical strains; conditions: 0.02% BSA, 0.2% acetic acid
Experimental: as §1, §2

[8] = tested on: clinical strains of Serratia marcescens; assay: MIC, microdilution, clinical strains; conditions: 0.02% BSA, 0.2% acetic acid
Experimental: as §1, §2

`CC(C)C[C@@H](NC(=O)[C@H](N)CCCNC(=N)N)C(=O)N[C@H](CCCCN)C(=O)N[C@H](Cc1c[nH]c2ccccc12)C(=O)N[C@H](Cc1ccccc1)C(=O)N[C@H](Cc1c[nH]c2ccccc12)C(=O)N[C@H](CC(C)C)C(=O)N[C@H](Cc1ccccc1)C(=O)N[C@H](CCCNC(=N)N)C(=O)N[C@H](CCCCN)C(=O)N[C@H](CCCNC(=N)N)C(=O)O` [Chain307D] (H-[dR][dL][dK][dW][dF][dW][dL][dF][dR][dK][dR]-OH) gave a Minimum inhibitory concentration (C. parapsilosis; C. parapsilosis clinical yeast strain 1) of 16, a Minimum inhibitory concentration (C. parapsilosis; C. parapsilosis clinical yeast strain 2) of 8 and a Minimum inhibitory concentration (C. parapsilosis; C. parapsilosis clinical yeast strain 3) of 8. The Minimum inhibitory concentration (C. parapsilosis; C. parapsilosis clinical yeast strain 4) was 8, the Minimum inhibitory concentration (C. glabrata; C. glabrata clinical yeast strain 1) was 8 and the Minimum inhibitory concentration (C. glabrata; C. glabrata clinical yeast strain 2) was 16. For the same compound, the Minimum inhibitory concentration (C. glabrata; C. glabrata clinical yeast strain 3) was 8, the Minimum inhibitory concentration (C. glabrata; C. glabrata clinical yeast strain 4) was 16 and the Minimum inhibitory concentration (Candida albicans; Candida albicans clinical yeast strain 1) was 16. The Minimum inhibitory concentration (Candida albicans; Candida albicans clinical yeast strain 2) was 16, the Minimum inhibitory concentration (Candida albicans; Candida albicans clinical yeast strain 3) was 16 and the Minimum inhibitory concentration (Candida albicans; Candida albicans clinical yeast strain 4) was 16. For the same compound, the Minimum inhibitory concentration (Candida albicans; Candida albicans clinical yeast strain 5) was 16, the Minimum inhibitory concentration (C. quillermondiae) was 4 and the Minimum inhibitory concentration ([1]; Pseudomonas aeruginosa strain 1, Muller Hinton broth-cation adjusted) was 16. It also gave a Minimum inhibitory concentration ([1]; Pseudomonas aeruginosa strain 2, Muller Hinton broth-cation adjusted) of 16, a Minimum inhibitory concentration ([1]; Pseudomonas aeruginosa strain 3, Muller Hinton broth-cation adjusted) of 16 and a Minimum inhibitory concentration ([1]; Pseudomonas aeruginosa strain 4, Muller Hinton broth-cation adjusted) of 8. The Minimum inhibitory concentration ([1]; Pseudomonas aeruginosa strain 5, Muller Hinton broth-cation adjusted) was 8, the Minimum inhibitory concentration ([2]; Klebsiella pneumoniae strain 1, Muller Hinton broth-cation adjusted) was 8 and the Minimum inhibitory concentration ([2]; Klebsiella pneumoniae strain 2, Muller Hinton broth-cation adjusted) was 8. The Minimum inhibitory concentration ([2]; Klebsiella pneumoniae strain 3, Muller Hinton broth-cation adjusted) was 16, the Minimum inhibitory concentration ([2]; Klebsiella pneumoniae strain 4, Muller Hinton broth-cation adjusted) was 16 and the Minimum inhibitory concentration ([2]; Klebsiella pneumoniae strain 5, Muller Hinton broth-cation adjusted) was 4. For the same compound, the Minimum inhibitory concentration ([3]; Proteus mirabilis strain 1, Muller Hinton broth-cation adjusted) was >128, the Minimum inhibitory concentration ([3]; Proteus mirabilis strain 2, Muller Hinton broth-cation adjusted) was 128 and the Minimum inhibitory concentration ([3]; Proteus mirabilis strain 3, Muller Hinton broth-cation adjusted) was 128. For the same compound, the Minimum inhibitory concentration ([3]; Proteus mirabilis strain 4, Muller Hinton broth-cation adjusted) was >128, the Minimum inhibitory concentration ([3]; Proteus mirabilis strain 5, Muller Hinton broth-cation adjusted) was >128 and the Minimum inhibitory concentration ([4]; Enterobacter cloacae strain 1, Muller Hinton broth-cation adjusted) was 4. The Minimum inhibitory concentration ([4]; Enterobacter cloacae strain 2, Muller Hinton broth-cation adjusted) was 8, the Minimum inhibitory concentration ([4]; Enterobacter cloacae strain 3, Muller Hinton broth-cation adjusted) was 4 and the Minimum inhibitory concentration ([4]; Enterobacter cloacae strain 4, Muller Hinton broth-cation adjusted) was 4. For the same compound, the Minimum inhibitory concentration ([4]; Enterobacter cloacae strain 5, Muller Hinton broth-cation adjusted) was 4, the Minimum inhibitory concentration ([5]; Escherichia coli strain 1) was 4 and the Minimum inhibitory concentration ([5]; Escherichia coli strain 2) was 4. The Minimum inhibitory concentration ([5]; Escherichia coli strain 3) was 4, the Minimum inhibitory concentration ([5]; Escherichia coli strain 4) was 2 and the Minimum inhibitory concentration ([5]; Escherichia coli strain 5) was 4. It also gave a Minimum inhibitory concentration ([6]; Staphylococcus aureus strain 1, Muller Hinton broth-cation adjusted) of 2, a Minimum inhibitory concentration ([6]; Staphylococcus aureus strain 2, Muller Hinton broth-cation adjusted) of 2 and a Minimum inhibitory concentration ([6]; Staphylococcus aureus strain 3, Muller Hinton broth-cation adjusted) of 2. The Minimum inhibitory concentration ([6]; Staphylococcus aureus strain 4, Muller Hinton broth-cation adjusted) was 2, the Minimum inhibitory concentration ([6]; Staphylococcus aureus strain 5, Muller Hinton broth-cation adjusted) was 2 and the Minimum inhibitory concentration ([7]; Streptococcus pneumoniae strain 1, Muller Hinton broth-cation adjusted) was 4. For the same compound, the Minimum inhibitory concentration ([7]; Streptococcus pneumoniae strain 2, Muller Hinton broth-cation adjusted) was 4, the Minimum inhibitory concentration ([7]; Streptococcus pneumoniae strain 3, Muller Hinton broth-cation adjusted) was 4 and the Minimum inhibitory concentration ([7]; Streptococcus pneumoniae strain 4, Muller Hinton broth-cation adjusted) was 2. The Minimum inhibitory concentration ([7]; Streptococcus pneumoniae strain 5, Muller Hinton broth-cation adjusted) was 2, the Minimum inhibitory concentration ([8]; Serratia marcescens strain 1, Muller Hinton broth-cation adjusted) was >128 and the Minimum inhibitory concentration ([8]; Serratia marcescens strain 2, Muller Hinton broth-cation adjusted) was >128. For the same compound, the Minimum inhibitory concentration ([8]; Serratia marcescens strain 3, Muller Hinton broth-cation adjusted) was 128, the Minimum inhibitory concentration ([8]; Serratia marcescens strain 4, Muller Hinton broth-cation adjusted) was >128 and the Minimum inhibitory concentration ([8]; Serratia marcescens strain 5, Muller Hinton broth-cation adjusted) was >128.
